The target of assay [1] is T1, 5-hydroxytryptamine receptor 3A (Homo sapiens, UniProt P46098).
T1 sequence (P46098 whole entry): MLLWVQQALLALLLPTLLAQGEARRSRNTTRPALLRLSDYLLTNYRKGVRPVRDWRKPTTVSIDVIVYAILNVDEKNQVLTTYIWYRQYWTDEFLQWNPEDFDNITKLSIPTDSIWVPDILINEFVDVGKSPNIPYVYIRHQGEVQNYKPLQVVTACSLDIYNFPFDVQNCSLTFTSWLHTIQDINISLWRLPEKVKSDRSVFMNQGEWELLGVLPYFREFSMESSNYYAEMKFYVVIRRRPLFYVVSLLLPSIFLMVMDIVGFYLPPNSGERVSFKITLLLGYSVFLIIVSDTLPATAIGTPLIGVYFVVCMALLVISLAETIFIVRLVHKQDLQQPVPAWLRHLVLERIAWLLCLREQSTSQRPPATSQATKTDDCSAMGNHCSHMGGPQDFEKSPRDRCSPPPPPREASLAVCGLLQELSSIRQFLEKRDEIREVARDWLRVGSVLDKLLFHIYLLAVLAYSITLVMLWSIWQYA
Format: functional.

For assay [2], the target named is Growth hormone secretagogue receptor type 1 (Homo sapiens, UniProt Q92847).
Sequence of Growth hormone secretagogue receptor type 1 (Q92847 whole entry): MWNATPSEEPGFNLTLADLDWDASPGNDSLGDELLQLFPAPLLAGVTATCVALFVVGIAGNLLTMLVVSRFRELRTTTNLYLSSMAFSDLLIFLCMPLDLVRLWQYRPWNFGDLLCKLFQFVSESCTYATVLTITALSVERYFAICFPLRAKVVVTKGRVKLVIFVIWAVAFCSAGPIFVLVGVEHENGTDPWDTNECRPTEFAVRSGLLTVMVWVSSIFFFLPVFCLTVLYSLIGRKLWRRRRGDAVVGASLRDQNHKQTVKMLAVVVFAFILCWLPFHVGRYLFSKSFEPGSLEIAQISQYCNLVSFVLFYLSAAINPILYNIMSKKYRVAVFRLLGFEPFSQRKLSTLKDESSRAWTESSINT
Assay [3] concerns the target Glutamate receptor ionotropic, NMDA 1 (Rattus norvegicus, UniProt P35439).
For assay [4], the target named is T2, Neuropeptide Y receptor type 1 (Homo sapiens, UniProt P25929).
T2 sequence (P25929 whole entry): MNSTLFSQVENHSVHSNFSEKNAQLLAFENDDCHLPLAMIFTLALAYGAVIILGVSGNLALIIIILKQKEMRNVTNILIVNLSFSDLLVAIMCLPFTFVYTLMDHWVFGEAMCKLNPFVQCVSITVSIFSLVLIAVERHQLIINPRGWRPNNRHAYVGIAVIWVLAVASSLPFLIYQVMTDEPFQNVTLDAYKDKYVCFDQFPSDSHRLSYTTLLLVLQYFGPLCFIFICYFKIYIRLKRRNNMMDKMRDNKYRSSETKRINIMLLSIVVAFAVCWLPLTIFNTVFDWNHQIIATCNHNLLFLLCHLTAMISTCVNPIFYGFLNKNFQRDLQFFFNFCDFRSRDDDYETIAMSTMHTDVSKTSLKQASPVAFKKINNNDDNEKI

The target in assay [5] is cGMP-inhibited 3',5'-cyclic phosphodiesterase 3A (Homo sapiens, UniProt Q14432). Format: functional.
Sequence of cGMP-inhibited 3',5'-cyclic phosphodiesterase 3A (Q14432 whole entry): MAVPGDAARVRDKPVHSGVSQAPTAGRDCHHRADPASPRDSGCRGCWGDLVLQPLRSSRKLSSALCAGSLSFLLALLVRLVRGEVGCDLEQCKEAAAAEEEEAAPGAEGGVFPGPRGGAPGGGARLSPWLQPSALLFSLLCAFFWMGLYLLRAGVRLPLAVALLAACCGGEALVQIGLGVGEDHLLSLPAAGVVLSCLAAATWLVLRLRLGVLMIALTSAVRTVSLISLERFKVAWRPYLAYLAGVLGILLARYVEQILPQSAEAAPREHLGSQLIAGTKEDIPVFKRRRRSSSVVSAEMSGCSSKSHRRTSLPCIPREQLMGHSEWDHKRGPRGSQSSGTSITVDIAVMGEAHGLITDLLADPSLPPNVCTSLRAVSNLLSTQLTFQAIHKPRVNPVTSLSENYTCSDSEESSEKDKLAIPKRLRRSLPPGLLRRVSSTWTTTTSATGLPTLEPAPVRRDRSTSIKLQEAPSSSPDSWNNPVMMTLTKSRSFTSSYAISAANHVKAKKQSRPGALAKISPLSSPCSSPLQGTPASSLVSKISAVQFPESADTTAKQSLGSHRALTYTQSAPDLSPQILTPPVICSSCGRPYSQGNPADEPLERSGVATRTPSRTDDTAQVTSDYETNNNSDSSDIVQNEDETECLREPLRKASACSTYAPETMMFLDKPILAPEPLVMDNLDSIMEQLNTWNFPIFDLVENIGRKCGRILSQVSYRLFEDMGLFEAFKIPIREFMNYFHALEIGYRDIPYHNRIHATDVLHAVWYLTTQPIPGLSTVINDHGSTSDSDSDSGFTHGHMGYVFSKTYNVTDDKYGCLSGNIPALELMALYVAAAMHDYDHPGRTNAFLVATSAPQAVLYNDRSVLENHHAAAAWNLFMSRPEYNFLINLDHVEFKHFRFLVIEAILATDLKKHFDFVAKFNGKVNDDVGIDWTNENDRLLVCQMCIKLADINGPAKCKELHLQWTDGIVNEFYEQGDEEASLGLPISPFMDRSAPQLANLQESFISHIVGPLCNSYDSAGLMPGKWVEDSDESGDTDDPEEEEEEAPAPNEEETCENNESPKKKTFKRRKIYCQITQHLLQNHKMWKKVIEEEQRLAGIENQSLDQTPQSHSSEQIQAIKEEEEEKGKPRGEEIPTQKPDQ
Assay [6] deals with T3, Estrogen receptor (Homo sapiens, UniProt P03372).
T3 sequence (P03372 whole entry): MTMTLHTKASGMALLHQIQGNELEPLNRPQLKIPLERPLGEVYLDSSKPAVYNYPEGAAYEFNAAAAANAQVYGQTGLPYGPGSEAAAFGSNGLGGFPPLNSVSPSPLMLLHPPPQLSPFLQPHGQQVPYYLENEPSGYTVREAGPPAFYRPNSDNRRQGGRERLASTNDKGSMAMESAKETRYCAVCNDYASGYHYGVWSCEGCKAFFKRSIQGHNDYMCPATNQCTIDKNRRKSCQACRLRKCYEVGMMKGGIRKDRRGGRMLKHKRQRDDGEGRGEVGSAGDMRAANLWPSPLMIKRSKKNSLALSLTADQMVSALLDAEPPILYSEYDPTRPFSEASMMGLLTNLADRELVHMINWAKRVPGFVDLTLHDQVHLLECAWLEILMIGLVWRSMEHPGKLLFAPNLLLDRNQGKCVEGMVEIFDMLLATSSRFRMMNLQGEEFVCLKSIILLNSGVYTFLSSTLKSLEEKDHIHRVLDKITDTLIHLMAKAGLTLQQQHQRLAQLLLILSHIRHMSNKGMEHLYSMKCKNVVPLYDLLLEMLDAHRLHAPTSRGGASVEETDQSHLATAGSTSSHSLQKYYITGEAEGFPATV

Assay [7] concerns the target 3',5'-cyclic-AMP phosphodiesterase 4D (Homo sapiens, UniProt Q08499). Format: functional.
The target of assay [8] is T4, Type-1 angiotensin II receptor (Homo sapiens, UniProt P30556).
T4 sequence (P30556 whole entry): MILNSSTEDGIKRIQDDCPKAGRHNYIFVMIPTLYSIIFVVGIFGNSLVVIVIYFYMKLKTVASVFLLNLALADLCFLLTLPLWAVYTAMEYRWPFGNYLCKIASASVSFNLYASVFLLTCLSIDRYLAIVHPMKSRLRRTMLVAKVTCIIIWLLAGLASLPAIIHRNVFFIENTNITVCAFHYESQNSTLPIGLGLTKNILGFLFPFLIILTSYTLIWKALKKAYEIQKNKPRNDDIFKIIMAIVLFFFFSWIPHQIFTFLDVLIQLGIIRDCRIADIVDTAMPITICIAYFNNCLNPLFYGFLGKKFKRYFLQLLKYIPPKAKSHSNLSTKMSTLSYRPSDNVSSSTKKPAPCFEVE

Assay [9] deals with Histamine H1 receptor (Homo sapiens, UniProt P35367).
Sequence of Histamine H1 receptor (P35367 whole entry): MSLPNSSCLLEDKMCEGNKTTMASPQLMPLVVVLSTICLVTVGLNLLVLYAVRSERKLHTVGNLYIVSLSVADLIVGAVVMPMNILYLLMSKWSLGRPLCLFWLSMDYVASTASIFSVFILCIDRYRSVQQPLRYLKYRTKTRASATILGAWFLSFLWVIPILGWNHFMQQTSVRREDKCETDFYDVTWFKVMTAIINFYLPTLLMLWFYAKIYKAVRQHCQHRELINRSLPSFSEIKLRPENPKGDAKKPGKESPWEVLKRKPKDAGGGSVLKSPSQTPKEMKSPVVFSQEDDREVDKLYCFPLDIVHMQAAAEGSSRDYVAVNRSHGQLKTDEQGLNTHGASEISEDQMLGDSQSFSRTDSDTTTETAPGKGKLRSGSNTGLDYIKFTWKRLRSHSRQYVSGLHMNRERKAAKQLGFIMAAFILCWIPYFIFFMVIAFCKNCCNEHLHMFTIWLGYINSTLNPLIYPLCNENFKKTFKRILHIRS
Assay [10] has as its target T5, Cholecystokinin receptor type A (Homo sapiens, UniProt P32238).
T5 sequence (P32238 whole entry): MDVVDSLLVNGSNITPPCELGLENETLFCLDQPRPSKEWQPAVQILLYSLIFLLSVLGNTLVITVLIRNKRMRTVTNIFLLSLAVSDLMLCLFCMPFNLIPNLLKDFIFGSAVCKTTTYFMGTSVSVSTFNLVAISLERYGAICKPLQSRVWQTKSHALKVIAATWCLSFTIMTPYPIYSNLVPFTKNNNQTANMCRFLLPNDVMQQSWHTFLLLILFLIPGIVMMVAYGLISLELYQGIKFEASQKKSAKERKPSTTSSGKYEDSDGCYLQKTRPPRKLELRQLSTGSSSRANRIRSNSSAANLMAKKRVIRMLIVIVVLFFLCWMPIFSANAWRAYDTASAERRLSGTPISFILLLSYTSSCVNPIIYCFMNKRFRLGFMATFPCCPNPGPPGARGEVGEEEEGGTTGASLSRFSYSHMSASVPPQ

Assay [11] has as its target Kappa-type opioid receptor (Homo sapiens, UniProt P41145).
The target in assay [12] is Neuronal acetylcholine receptor subunit alpha-4 (Homo sapiens, UniProt P43681).
Sequence of Neuronal acetylcholine receptor subunit alpha-4 (P43681 whole entry): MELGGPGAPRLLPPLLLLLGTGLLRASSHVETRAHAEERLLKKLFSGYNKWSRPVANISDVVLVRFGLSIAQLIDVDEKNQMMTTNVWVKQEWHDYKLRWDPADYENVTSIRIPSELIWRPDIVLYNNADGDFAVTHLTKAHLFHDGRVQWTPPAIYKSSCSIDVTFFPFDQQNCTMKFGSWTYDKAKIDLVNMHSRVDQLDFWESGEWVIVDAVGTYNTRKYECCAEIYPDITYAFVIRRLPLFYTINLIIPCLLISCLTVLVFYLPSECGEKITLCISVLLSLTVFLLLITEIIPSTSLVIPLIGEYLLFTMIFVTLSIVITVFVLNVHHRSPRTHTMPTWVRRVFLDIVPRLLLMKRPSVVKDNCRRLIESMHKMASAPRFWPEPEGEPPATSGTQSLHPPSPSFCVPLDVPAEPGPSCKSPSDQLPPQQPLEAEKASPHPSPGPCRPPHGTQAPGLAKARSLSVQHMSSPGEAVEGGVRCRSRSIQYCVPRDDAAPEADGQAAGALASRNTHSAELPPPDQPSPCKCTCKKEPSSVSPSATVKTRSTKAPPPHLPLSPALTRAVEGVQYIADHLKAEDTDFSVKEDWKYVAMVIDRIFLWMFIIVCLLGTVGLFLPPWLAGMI
The target of assay [13] is 5-hydroxytryptamine receptor 2B (Homo sapiens, UniProt P41595). Format: functional, cell-based.
The target in assay [14] is Cannabinoid receptor 1 (Homo sapiens, UniProt P21554). Format: functional, cell-based.
Sequence of Cannabinoid receptor 1 (P21554 whole entry): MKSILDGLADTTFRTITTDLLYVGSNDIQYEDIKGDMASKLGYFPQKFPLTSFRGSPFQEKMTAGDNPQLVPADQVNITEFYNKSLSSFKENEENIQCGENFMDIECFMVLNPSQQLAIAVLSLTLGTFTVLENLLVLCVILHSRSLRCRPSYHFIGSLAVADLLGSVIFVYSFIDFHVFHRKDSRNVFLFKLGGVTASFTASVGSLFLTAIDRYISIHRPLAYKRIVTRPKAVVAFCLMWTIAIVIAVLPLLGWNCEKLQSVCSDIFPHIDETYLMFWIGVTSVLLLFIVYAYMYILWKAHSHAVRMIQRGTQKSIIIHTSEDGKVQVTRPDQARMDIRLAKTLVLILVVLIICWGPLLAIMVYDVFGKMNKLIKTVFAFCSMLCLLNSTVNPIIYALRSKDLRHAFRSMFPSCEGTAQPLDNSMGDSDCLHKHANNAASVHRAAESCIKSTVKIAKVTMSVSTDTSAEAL
Assay [15] addresses Mu-type opioid receptor (Homo sapiens, UniProt P35372). The assay can be described thus: biochemical. Format: functional.

Structures are written as SMILES. Some results are limits rather than exact numbers.
Further: assay procedure not described here.

Sequence of 3',5'-cyclic-AMP phosphodiesterase 4D (Q08499 whole entry): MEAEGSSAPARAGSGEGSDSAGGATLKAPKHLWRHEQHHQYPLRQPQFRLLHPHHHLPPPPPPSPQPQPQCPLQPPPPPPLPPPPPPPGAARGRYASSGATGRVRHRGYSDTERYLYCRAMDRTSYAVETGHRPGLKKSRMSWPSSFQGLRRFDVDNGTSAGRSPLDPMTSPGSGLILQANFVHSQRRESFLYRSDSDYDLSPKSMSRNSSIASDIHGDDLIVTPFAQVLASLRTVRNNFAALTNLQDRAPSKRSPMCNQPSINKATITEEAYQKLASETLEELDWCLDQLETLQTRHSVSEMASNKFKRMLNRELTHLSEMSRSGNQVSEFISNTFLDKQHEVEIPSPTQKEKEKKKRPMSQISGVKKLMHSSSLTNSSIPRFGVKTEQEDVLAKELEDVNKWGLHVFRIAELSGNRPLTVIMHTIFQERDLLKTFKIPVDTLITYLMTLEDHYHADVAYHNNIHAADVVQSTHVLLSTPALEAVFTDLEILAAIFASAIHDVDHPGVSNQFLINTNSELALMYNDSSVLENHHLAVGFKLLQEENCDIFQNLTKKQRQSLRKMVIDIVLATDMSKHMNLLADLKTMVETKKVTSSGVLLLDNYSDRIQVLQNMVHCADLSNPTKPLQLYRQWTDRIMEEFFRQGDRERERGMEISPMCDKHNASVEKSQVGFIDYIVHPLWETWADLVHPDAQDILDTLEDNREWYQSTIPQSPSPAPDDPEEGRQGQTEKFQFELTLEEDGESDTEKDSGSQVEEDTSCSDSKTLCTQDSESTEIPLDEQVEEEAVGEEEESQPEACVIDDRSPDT
Sequence of Mu-type opioid receptor (P35372 whole entry): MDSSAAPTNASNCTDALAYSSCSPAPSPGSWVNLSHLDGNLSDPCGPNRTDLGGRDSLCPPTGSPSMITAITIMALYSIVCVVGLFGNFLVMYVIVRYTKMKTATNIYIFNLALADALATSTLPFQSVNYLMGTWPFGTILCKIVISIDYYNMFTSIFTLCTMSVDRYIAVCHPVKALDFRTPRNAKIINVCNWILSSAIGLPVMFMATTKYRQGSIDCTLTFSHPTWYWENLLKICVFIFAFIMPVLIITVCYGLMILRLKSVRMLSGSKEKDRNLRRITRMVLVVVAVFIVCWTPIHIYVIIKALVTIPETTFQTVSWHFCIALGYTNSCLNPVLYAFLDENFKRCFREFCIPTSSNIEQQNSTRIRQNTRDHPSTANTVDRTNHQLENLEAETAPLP
Sequence of Kappa-type opioid receptor (P41145 whole entry): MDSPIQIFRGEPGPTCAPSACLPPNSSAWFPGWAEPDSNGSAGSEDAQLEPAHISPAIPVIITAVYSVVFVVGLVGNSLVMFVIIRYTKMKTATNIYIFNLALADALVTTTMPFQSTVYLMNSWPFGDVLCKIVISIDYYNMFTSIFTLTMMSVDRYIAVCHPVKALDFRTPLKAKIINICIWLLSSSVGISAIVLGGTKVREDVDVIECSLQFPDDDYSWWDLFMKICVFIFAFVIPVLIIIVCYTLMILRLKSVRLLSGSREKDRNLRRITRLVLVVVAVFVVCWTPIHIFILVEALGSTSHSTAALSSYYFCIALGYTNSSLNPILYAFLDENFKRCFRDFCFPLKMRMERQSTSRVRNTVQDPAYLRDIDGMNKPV

In general, AC50 refers to the midpoint of the concentration-response curve, whichever way the signal moves. With `C[C@]1(COc2ccc(N3CCC(Oc4ccc(OC(F)(F)F)cc4)CC3)cc2)Cn2cc([N+](=O)[O-])nc2O1`, the AC50 is more than 10 µM in assay [1]; more than 30 µM in assay [2]; more than 10 µM in assay [3]; more than 30 µM in assay [4]; more than 30 µM in assay [5]; more than 30 µM in [6]. Moreover, the AC50 is more than 30 µM in [7]; more than 30 µM in assay [8]; more than 10 µM in assay [9]; more than 30 µM in [10]; more than 10 µM in assay [11]; more than 10 µM in [12].
Consider `C[C@]12CC[C@H](O)CC1=CC[C@@H]1[C@@H]2CC[C@]2(C)C(c3cccnc3)=CC[C@@H]12` [ABIRATERONE], for which the AC50 in assay [1] was more than 30 µM; in assay [2], more than 30 µM; in [3], more than 10 µM; in [4], more than 30 µM; in assay [5] it was more than 30 µM; in assay [6] it was more than 30 µM. The AC50 in assay [7] was more than 30 µM; in assay [8] it was more than 30 µM; in assay [13], more than 10 µM; in assay [9], more than 10 µM; in assay [10] it was more than 30 µM; in [11] it was more than 10 µM. Besides, in assay [12], the AC50 was more than 10 µM.
For `C[C@@H]1CCC[C@H](C)N1NC(=O)c1ccc(Cl)c(S(N)(=O)=O)c1` [CLOPAMIDE], the AC50 in assay [1], in assay [2], in [3], in assay [14], in [15] and in [4] was more than 30 µM throughout. Moreover, the AC50 in [5], in assay [6], in [7], in assay [8], in [13] and in [9] was more than 30 µM each time. The AC50 in [10], in assay [11] and in assay [12] was more than 30 µM throughout.
Regarding `COc1ccc2c(c1)[C@]13CCCC[C@@H]1[C@H](C2)N(C)CC3` [DEXTROMETHORPHAN], the AC50 was more than 10 µM in assay [1]; more than 30 µM in assay [2]; more than 30 µM in assay [15]; more than 30 µM in assay [4]; more than 30 µM in assay [5]; more than 30 µM in assay [6]. For the same compound, the AC50 in [7] was more than 30 µM; in [8] it was more than 30 µM; in [13] it was more than 10 µM; in assay [10] it was more than 30 µM; in [12] it was more than 10 µM.
As for `COc1cccc(N(C)C(=S)Oc2ccc3c(c2)CCCC3)n1` [LIRANAFTATE], the AC50 in [1], in [2], in assay [3], in assay [14], in assay [15] and in assay [4] was more than 30 µM each time. Besides, the AC50 in assay [5], in [6], in [7], in [8], in [13] and in assay [9] was more than 30 µM in each case. Moreover, the AC50 in [10] is more than 30 µM; in assay [11] it was 1.5 µM; in assay [12], more than 30 µM.
As for `C#C[C@]1(O)CC[C@H]2[C@@H]3CCc4cc(OC)ccc4[C@H]3CC[C@@]21C` [MESTRANOL], the AC50 in [1] was more than 30 µM; in [2] it was more than 10 µM; in assay [3] it was more than 10 µM; in [15] it was more than 30 µM; in [4], more than 10 µM; in assay [5] it was more than 30 µM. Also, the AC50 in assay [6] was 0.136 µM; in assay [7], more than 30 µM; in [8], more than 10 µM; in [13], more than 10 µM; in assay [10], more than 10 µM; in assay [11] it was more than 10 µM. In assay [12], this compound gave an AC50 of more than 10 µM.
Turning to `CNC(=O)Oc1ccc2c(c1)[C@]1(C)CCN(C)[C@@H]1N2C` [PHYSOSTIGMINE], the AC50 in [1], in assay [2], in [3], in assay [14], in assay [15] and in assay [4] was more than 30 µM each time. The AC50 in assay [5], in [6], in assay [7], in [8], in [13] and in assay [10] was more than 30 µM in each case. For the same compound, the AC50 was 2.2 µM in assay [11] and more than 30 µM in assay [12].
Consider `NS(=O)(=O)c1cc(C(=O)O)cc(N2CCCC2)c1Oc1ccccc1` [PIRETANIDE], for which the AC50 in assay [1], in assay [2], in assay [3], in assay [14], in assay [15] and in [4] was more than 30 µM each time. Moreover, the AC50 in assay [5], in [6], in [7], in assay [8], in [13] and in assay [9] was more than 30 µM throughout. Further, the AC50 in [10], in assay [11] and in [12] was more than 30 µM throughout.
With `CN(C)c1cc(NC(=O)CNC(C)(C)C)c(O)c2c1C[C@H]1C[C@H]3[C@H](N(C)C)C(O)=C(C(N)=O)C(=O)[C@@]3(O)C(O)=C1C2=O` [TIGECYCLINE], the AC50 in assay [1], in assay [2], in [3], in [15], in [4] and in assay [5] was more than 30 µM each time. The AC50 in assay [6], in [7], in [8], in [13], in assay [9] and in assay [10] was more than 30 µM throughout. The AC50 in assay [11] and in assay [12] was more than 30 µM in each case.

Values taken from ChEMBL document CHEMBL5291721, “A preclinical secondary pharmacology resource illuminates target-adverse drug reaction associations of marketed drugs” (Nat Commun, 2023).
